Laboratory results: patent US20190099413A1, “DRUG FOR CANCER THERAPY CHARACTERIZED IN THAT AXL INHIBITOR AND IMMUNE CHECKPOINT INHIBITOR ARE ADMINISTERED IN COMBINATION” (ONO PHARMACEUTICAL CO., LTD., priority 2016, published 2019)

Tested on: mouse colon cancer cell line MC38
Assay: Anti-tumor action on mouse colon cancer cell line MC38 subcutaneous cancer-bearing model
Type: in vivo
Conditions: for average volume of tumors on day 14: C57/BL6 mice; for Number of cases where tumor was eliminated: observed until 28th day, cases/n; for mice in which cancer had been eliminated: single administration or combined use with 4H2
Protocol: Biological Example 1: Evaluation of Anti-Tumor Action by Combined Use of Compound A and Anti-PD-1 Antibody on Mouse Colon Cancer Cell Line MC38 Subcutaneous Cancer-Bearing Model (In Vivo)
For the compound A, mouse feed CRF-1 containing 0.0013% or 0.013% compound A was manufactured by Oriental Yeast Co., Ltd. so as to be administered at a dose of 2 or 20 mg/kg/day via diet. 4H2 as the anti-mouse PD-1 antibody, which had been prepared in KITAYAMA LABES CO., LTD., was obtained. C57/BL6 mouse colon cancer cell line MC38 was subcutaneously transplanted into dorsal parts of […] syngeneic mice (C57/BL6, female, 6 weeks old (Charles River Laboratories Japan, Inc.)) to produce MC38 subcutaneous cancer-bearing mice. On the day when the average of tumor volumes reached 150 mm^3, group assignment was carried out based on the tumor volumes (the day on which administration was started was defined as Day 0). To the MC38 subcutaneous cancer-bearing mice, PBS (on days 0, 6, 12, 18, and 24, intraperitoneal administration, n=9), 4H2 (on Day 0, 20 mg/kg/day and on days 6, 12, 18, and 24, 10 mg/kg/day, intraperitoneal administration, n=8), the compound A (on days 0 to 28, 2 mg/kg, administration via diet (n=9)), the compound A (on days 0 to 28, 20 mg/kg, administration via diet (n=9)), combined use of 4H2 and the compound A (compound A, 2 mg/kg (n=9)), and combined use of 4H2 and the compound A (compound A, 20 mg/kg (n=9)) were administered. Change of the volume of tumor was observed continuously until the 28th day. Note here that, from the viewpoint of the animal ethics, a mouse whose tumor exceeded 3000 mm^3 in volume was euthanatized, and evaluation for the group to which the euthanatized mouse belonged was stopped at this point.

COc1cc2nccc(Oc3ccc(NC(=O)c4cc5c(n(-c6ccccc6)c4=O)CCCC5=O)nc3)c2cc1OC [Compound A, N-{5-[(6,7-dimethoxy-4-quinolinyl)oxy]-2-pyridinyl}-2,5-dioxo-1-phenyl-1,2,5,6,7,8-hexahydro-3-quinolinecarboxamide]
average volume of tumors on day 14 (compound A 2 mg/kg via diet days 0 to 28, alone or combined with 4H2 (20 then 10 mg/kg/day i.p.)): 1379.5 mm^3
Number of cases where tumor was eliminated (compound A 2 mg/kg via diet days 0 to 28, alone or combined with 4H2): 1/9
mice in which cancer had been eliminated (compound A 2 mg/kg): one
average volume of tumors on day 14 (compound A 20 mg/kg via diet days 0 to 28, alone or combined with 4H2 (20 then 10 mg/kg/day i.p.)): 639.3 mm^3
Number of cases where tumor was eliminated (compound A 20 mg/kg via diet days 0 to 28, alone or combined with 4H2): 1/9
mice in which cancer had been eliminated (compound A 20 mg/kg): one
